From ChEMBL document CHEMBL3351453 (2014) come the findings set out here.

SMILES strings stand for the structures. Active and inactive are the calls of the source. The calls are words filed in the database; no cut-off is given here.

One assay has as its system RKO. As to conditions: Homo sapiens, at 20 to 80 µM.
The subject of a further assay is BFTC-905. As to conditions: Homo sapiens, at 20 to 80 µM.
Assay [1] has as its system A549. In words: Cytotoxicity against human A549 cells assessed as cell viability at >40 uM after 24 hrs by MTT assay relative to gefitinib. In kind it is functional.
The test system of assay [2] is A549. In words: Cytotoxicity against human A549 cells assessed as cell viability at 20 uM after 24 hrs by MTT assay (reference value: 100%). The class given is functional. As to conditions: A549, 24 h, read-out: Activity. Background: Tetrazolium dyes change colour on reduction, which living cells bring about.
Assay [3] relates to A549. Kind of assay: Cytotoxicity against human A549 cells assessed as cell viability at 60 uM after 24 hrs by MTT assay (reference value: 100%). In kind it is functional. As to conditions: A549, 24 h, read-out: Activity.
Assay [4] relates to A549. In words: Cytotoxicity against human A549 cells assessed as cell viability at 40 uM after 24 hrs by MTT assay (reference value: 100%). In kind it is functional. As to conditions: A549, 24 h, read-out: Activity.
Assay [5] deals with A549. In words: Cytotoxicity against human A549 cells assessed as cell viability at 80 uM after 24 hrs by MTT assay (reference value: 100%). The class given is functional. As to conditions: A549, 24 h, read-out: Activity.
Assay [6] relates to A549. In words: Cytotoxicity against human A549 cells assessed as cell viability at 10 uM after 24 hrs by MTT assay (reference value: 100%). In kind it is functional. As to conditions: A549, 24 h, read-out: Activity.

Description for BFTC-905: Cytotoxicity against human BFTC905 cells assessed as reduction in cell viability at 20 to 80 uM after 24 hrs by MTT assay
Description for RKO: Cytotoxicity against human RKO cells assessed as reduction in cell viability at 20 to 80 uM after 24 hrs by MTT assay

In the case of `COC(=O)CCC(=O)N1CCN(CCCOc2cc3c(Nc4ccc(F)c(Cl)c4)ncnc3cc2OC)CC1`, the inhibition result with RKO and in the assay with BFTC-905 was “Active” each time.

As to `CCCCCCCCCCCCOC(=O)CCC(=O)N1CCN(CCCOc2cc3c(Nc4ccc(F)c(Cl)c4)ncnc3cc2OC)CC1`, the Ratio in the assay on A549 [1] is 15.

Regarding `COc1cc2ncnc(Nc3ccc(F)c(Cl)c3)c2cc1OCCCN1CCOC(=O)C1`, in the assay on A549 [2], the viability at 20 µM was 93.1%. In addition, the viability at 60 µM with A549 [3] was found to be 94.1%. Also, the viability at 40 µM in the assay with A549 [4] came out at 91%. For the same compound, the viability at 80 µM in the assay with A549 [5] amounted to 94.9%. Further, the viability at 10 µM in the assay with A549 [6] came out at 96.1%.

With `COc1cc2ncnc(Nc3ccc(F)c(Cl)c3)c2cc1OCCCN1CCN(C(=O)CCC(=O)O)CC1`, the inhibition entry in the assay with RKO and in the assay with BFTC-905 was “Active” throughout.

As for `CCCCCCCCCCOC(=O)CCC(=O)N1CCN(CCCOc2cc3c(Nc4ccc(F)c(Cl)c4)ncnc3cc2OC)CC1`, the Ratio in the assay with A549 [1] was 15.

In the case of `CCCCCCCCCCCOC(=O)CCC(=O)N1CCN(CCCOc2cc3c(Nc4ccc(F)c(Cl)c4)ncnc3cc2OC)CC1`, the Ratio in the assay on A549 [1] came out at 15.
